Data: patent publication US20110091377A1, “BIOMARKERS FOR MELANOMA” (THE JOHNS HOPKINS UNIVERSITY, priority 2007, published 2011)

What was measured:
Assay type in all cases: cell-based, human
[1] = system: WM852 (wildtype BRAF melanoma); assay: 3H-thymidine cell proliferation assay, WM852; details: 100 nM siRNA
Procedure: (§1) The MMP-1 siRNA (5′-gagcaagatgtggacttag-3′) and scrambled siRNA (5′-gattcaggtgtagaacgag-3′) sequences were designed using Dharmacon siDESIGN Center. Transfection of the siRNAs was performed using 2 μL of DharmaFECT 1 transfection reagent (Dharmacon) and 100 nM of MMP-1 siRNA and scrambled siRNA for the WM852 cell line and 250 nM for the WM793 cell line. Cells were collected and pelleted 24 hours after transfection for RNA extraction using the RNeasy Mini Kit ([…]), cDNA production by using SUPERSCRIPT First-Strand Synthesis System for RT-PCR according to manufacturer's instructions (Invitrogen), and semi-quantitative duplex PCR to confirm MMP-1 knockdown.
(§2) WM852 and WM793 cell lines were seeded at 15,000 cells per well into a 96-well tissue culture plate (Becton Dickinson) 24 hours after siRNA transfection. Twenty-two hours later, 10 μL of 0.1 μCi/μL ^3H-thymidine (Perkin Elmer) was added to each well. After 4 hours, the cells were washed with PBS and 50 μL of trypsin was added into each well for 10 minutes. The trypsinized cells were harvested to a filtermat using the Perkin Elmer FilterMate cell harvester (Perkin Elmer). The dried filtermat was sealed in a sample bag with 4 mL of scintillation fluid and then read on a Perkin Elmer 1450 Microbeta Liquid Scintillator (Perkin Elmer).

MMP-1 [2] = assay: Semi-quantitative duplex RT-PCR of MMP-1 after siRNA gene silencing; details: 24 hours after transfection
Procedure: as §1
Semi-quantitative duplex RT-PCR was performed by a MJ Research Programmable Thermal Controller (PTC-100, Inc.) and the amplified products were separated on an agarose gel. The duplex PCR utilized 20 by oligonucleotides to amplify regions of ˜350 by from MMP-1. Optimization experiments were conducted to determine a favorable primer concentration for the GAPDH internal control. The following primer oligonucleotides were used: MMP-1 forward (5′-[…]-3′), MMP-1 reverse (5′-[…]-3′), GAPDH forward (5′-[…]-3′), and GAPDH reverse (5′-[…]-3′). The PCR was carried out in a total volume of 25 uL, containing 2.5 uL of 10×PCR Buffer (containing 15 mM MgC12), 0.2 mM dNTPs, and 0.3 ul AmpliTaq Gold DNA Polymerase (Applied Biosystems). […]

[3] = system: WM793 (BRAF V600E melanoma); assay: 3H-thymidine cell proliferation assay, WM793; details: BRAF mutant melanoma (WM793), 250 nM siRNA
Procedure: as §1, §2

MMP-1 [4] = assay: MMP-1 ELISA of cell culture media after siRNA gene silencing
Procedure: Cell culture media with no serum was added to the cell lines. After 72 hours, the media was collected and the protein concentration was determined using the Bio-Rad Protein Assay reagent (Bio-Rad Laboratories). The amount of human MMP-1 pro and active forms was determined using the RAYBIO Human MMP-1 ELISA kit (RayBiotech, Inc.) following the manufacturer's instructions. MMP-1 activity in the collected media was measured using the SensoLyte Plus™ 520 MMP-1 Assay Kit (AnaSpec) following the manufacturer's protocol including the step to add 4-aminophenylmecuric acetate (APMA) to the samples in order to activate all the pro-MMP-1.

## 5′-gagcaagatgtggacttag-3′ [MMP-1 siRNA]
[1]
  cell growth inhibition versus control siRNA: 17%
MMP-1 [2]; WM793, BRAF V600E, 250 nM siRNA
  MMP-1 transcript levels: efficiently downregulated
MMP-1 [2]; WM852, wildtype BRAF, 100 nM siRNA
  MMP-1 transcript levels: efficiently downregulated
[3]
  cell growth inhibition versus control siRNA: 80%
MMP-1 [4]; WM793, BRAF V600E
  secreted MMP-1 protein levels from conditioned media: efficiently downregulated
MMP-1 [4]; WM852, wildtype BRAF
  secreted MMP-1 protein levels from conditioned media: efficiently downregulated
